Assays:
Assay in all cases: relative viability (nuclei count vs DMSO), 5 days (fraction); higher = more cells survive
Trametinib + Alpelisib = compound: CC(=O)Nc1cccc(-n2c(=O)n(C3CC3)c(=O)c3c(Nc4ccc(I)cc4F)n(C)c(=O)c(C)c32)c1 [Trametinib] + Cc1nc(NC(=O)N2CCC[C@H]2C(N)=O)sc1-c1ccnc(C(C)(C)C(F)(F)F)c1 [Alpelisib] (partner 2 µM)
Method in brief: (§1)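 Relative viability equals treated-well nuclei counts divided by vehicle-well nuclei counts. Counts came from 4× images of lung cancer cell lines grown in 1536-well plates for 5 days after pin-tool dosing on the day after seeding. Dosing used one drug alone or a fixed anchor-drug dose plus five library-drug doses (not always all listed) in √10 steps, and values are medians of duplicate plates.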

[1] = compound: CN1C=C(C2=CC=CC=C21)/C=C\3/C4=C(C=CC=N4)NC3=O + COc1cccc2cc(-c3nc([C@H]4CC[C@H](C(=O)O)CC4)n4ncnc(N)c34)[nH]c12 [OSI-027] (partner 0.5 µM)
Method in brief: as §1

Trametinib + Phenformin = compound: CC(=O)Nc1cccc(-n2c(=O)n(C3CC3)c(=O)c3c(Nc4ccc(I)cc4F)n(C)c(=O)c(C)c32)c1 [Trametinib] + N=C(N)NC(=N)NCCc1ccccc1 [Phenformin] (partner 250 µM)
Method in brief: as §1

[2] = compound: CN1C=C(C2=CC=CC=C21)/C=C\3/C4=C(C=CC=N4)NC3=O + CS(=O)(=O)N1CCN(Cc2cc3nc(-c4cccc5[nH]ncc45)nc(N4CCOCC4)c3s2)CC1 [Pictilisib] (partner 1 µM)
Method in brief: as §1

Cell Line	relative viability (Trametinib + Alpelisib; first compound 0.0025 µM)	relative viability (Trametinib + Alpelisib; first compound 0.007906 µM)	relative viability (Trametinib + Alpelisib; first compound 0.025 µM)	relative viability (Trametinib + Alpelisib; first compound 0.07906 µM)	relative viability (Trametinib + Alpelisib; first compound 0.25 µM)	relative viability ([1]; first compound 0.02 µM)	relative viability ([1]; first compound 0.06325 µM)	relative viability ([1]; first compound 0.2 µM)	relative viability ([1]; first compound 0.6325 µM)	relative viability ([1]; first compound 2 µM)	relative viability (Trametinib + Phenformin; first compound 0.0025 µM)	relative viability (Trametinib + Phenformin; first compound 0.007906 µM)	relative viability (Trametinib + Phenformin; first compound 0.025 µM)	relative viability (Trametinib + Phenformin; first compound 0.07906 µM)	relative viability (Trametinib + Phenformin; first compound 0.25 µM)	relative viability ([2]; first compound 0.02 µM)	relative viability ([2]; first compound 0.06325 µM)	relative viability ([2]; first compound 0.2 µM)	relative viability ([2]; first compound 0.6325 µM)	relative viability ([2]; first compound 2 µM)
CAL-12T	1.14	0.79	0.452	0.45	0.34	0.628	0.47	0.525	0.645	0.53	0.457	0.376	0.295	0.267	0.229	0.556	0.394	0.26	0.447	0.326
NCI-H596	0.34	0.422	0.311	0.371	0.342	0.656	0.764	0.566	0.692	0.633	0.713	0.704	0.485	0.622	0.411	0.333	0.322	0.421	0.392	0.396
PC-14	0.994	0.892	0.949	0.654	0.46	0.95	0.819	0.751	0.84	0.785	0.568	0.531	0.322	0.212	0.102	0.573	0.662	0.881	0.635	0.691
NCI-H1915	1.06	0.906	0.6	0.528	0.254	0.621	0.635	0.665	0.673	0.761	0.38	0.306	0.249	0.304	0.141	0.973	0.871	0.831	0.961	0.97
NCI-H647	1.14	0.956	0.768	0.638	0.199	0.719	0.616	0.478	0.655	0.557	0.554	0.561	0.507	0.333	0.148	0.379	0.292		0.324	0.312
NCI-H322M	0.78	0.59	0.555	0.455	0.316	0.516	0.487	0.4	0.587	0.567	0.679	0.577	0.525	0.501	0.43	0.431	0.552	0.498	0.478	0.542
NCI-H2170	0.828	0.721		0.669	0.638	0.718	0.69	0.55	0.764	0.668	0.351	0.414	0.399	0.357	0.333		0.312	0.235	0.317	0.242
BEN	0.951	0.939		0.763	0.888	0.282	0.29		0.403	0.276	0.264	0.258	0.247	0.278	0.275	0.541	0.596	0.504	0.478	0.532

Source: the supplement of paper PMC10307832
